Laboratory results from PubChem BioAssay AID1963956 (Xavier Lab, Infectious Disease and Microbiome Program, …, 2024).
The source made the active and inactive calls.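 The calls were made as follows: active = caspase-3 cutting of the mutant autophagy protein ATG16L1 lowered by over half at 20 µM; inactive = the rest.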

Molecular target: Autophagy-related protein 16-1 (Homo sapiens) (UniProt Q676U5)
Assay: blockers of caspase-3 processing of ATG16L1 variant – biochemical, AlphaLISA, recombinant protein, with or without FKBP12, dose response (AID 1963956)
Conditions: recombinant ATG16L1 T300A + caspase-3, AlphaLISA

Chain of Autophagy-related protein 16-1 (Homo sapiens) (Q676U5 whole entry T300A, looked up): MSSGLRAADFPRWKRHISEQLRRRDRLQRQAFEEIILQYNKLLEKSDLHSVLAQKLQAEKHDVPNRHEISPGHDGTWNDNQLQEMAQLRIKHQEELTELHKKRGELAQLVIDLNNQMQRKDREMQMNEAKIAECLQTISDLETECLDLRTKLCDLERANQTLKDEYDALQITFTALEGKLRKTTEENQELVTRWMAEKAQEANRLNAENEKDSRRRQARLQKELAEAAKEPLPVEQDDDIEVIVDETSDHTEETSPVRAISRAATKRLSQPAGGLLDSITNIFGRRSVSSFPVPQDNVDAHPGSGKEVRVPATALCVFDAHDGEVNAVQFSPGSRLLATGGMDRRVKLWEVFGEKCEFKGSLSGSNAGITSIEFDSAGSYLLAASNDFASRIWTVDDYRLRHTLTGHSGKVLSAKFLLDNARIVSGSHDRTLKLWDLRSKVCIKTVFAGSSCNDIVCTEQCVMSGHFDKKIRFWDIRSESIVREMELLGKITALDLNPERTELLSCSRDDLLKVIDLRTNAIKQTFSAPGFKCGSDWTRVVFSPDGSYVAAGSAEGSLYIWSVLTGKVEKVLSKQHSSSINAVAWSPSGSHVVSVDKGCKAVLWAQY

Row | SMILES | outcome (without FKBP12) | also measured
1 | CCC(C)(C)C(=O)C(=O)N1CCCC[C@H]1C(=O)N[C@H](CCc1ccc(OC)cc1)C(=O)N1[C@@H]2CC[C@H]1CC(NC(C)=O)C2 (some centres not stated) | inactive | –
2 | CCC(C)(C)C(=O)C(=O)N1CCCC[C@H]1C(=O)N[C@H](CCc1ccc(OC)cc1)C(=O)N1CC(Nc2nc(NCCc3sc(N)nc3C)nc(NCCn3cnc4ccccc43)n2)C1 | inactive | –
3 | CCC(C)(C)C(=O)C(=O)N1CCCC[C@H]1C(=O)N[C@H](CCc1ccc(OC)cc1)C(=O)N1[C@@H]2CC[C@H]1CC(Nc1nc(NCCc3sc(N)nc3C)nc(NCCn3cnc4ccccc43)n1)C2 (some centres not stated) | inactive | –
4 | CCC(C)(C)C(=O)C(=O)N1CCCC[C@H]1C(=O)N[C@H](CCc1ccc(OC)cc1)C(=O)N1[C@@H]2CC[C@H]1CC(Nc1nc(NCCc3sc(N)nc3C)nc(N(C)Cc3nnc4n3CCC4)n1)C2 (some centres not stated) | inactive | –
5 | CCC(C)(C)C(=O)C(=O)N1CCCC[C@H]1C(=O)N[C@H](CCc1ccc(OC)cc1)C(=O)N1[C@@H]2CC[C@H]1CC(Nc1nc(NCCc3ccccc3)nc(N3CCn4ncnc4C3)n1)C2 (some centres not stated) | inactive | outcome (with FKBP12): inactive
6 | CC(=O)N1[C@@H]2CC[C@H]1CC(Nc1nc(NCCc3sc(N)nc3C)nc(N3CCn4ncnc4C3)n1)C2 (some centres not stated) | inactive | outcome (with FKBP12): inactive
7 | CCC(C)(C)C(=O)C(=O)N1CCCC[C@H]1C(=O)N[C@H](CCc1ccc(OC)cc1)C(=O)N1[C@@H]2CC[C@H]1CC(Nc1nc(NCCc3sc(N)nc3C)nc(N3CCn4ncnc4C3)n1)C2 (some centres not stated) | – | EC50 (with FKBP12): 10.8 µM; EC50 (without FKBP12): 12.1 µM
8 | CCC(C)(C)C(=O)C(=O)N1CCCC[C@H]1C(=O)N[C@H](CCc1ccc(OC)cc1)C(=O)N1CC[C@H](Nc2nc(NCCc3sc(N)nc3C)nc(N(C)Cc3nnc4n3CCC4)n2)C1 | inactive | –
9 | CCC(C)(C)C(=O)C(=O)N1CCCC[C@H]1C(=O)N[C@H](CCc1ccc(OC)cc1)C(=O)N1[C@@H]2CC[C@H]1CC(Nc1nc(NCCc3sc(N)nc3C)nc(NCc3ccnc(CO)c3)n1)C2 (some centres not stated) | inactive | –
